Patent publication US7629310B2, “RhoB as a suppressor of cancer cell growth, cell transformation, and metastasis” (University of South Florida, priority 2000, dated 2009)

Tests used:
RhoB promoter [1] = experiment: RhoB promoter transcriptional activity (luciferase reporter) in NIH3T3 cells; assay type: cell-based
Source text: Gene Constructs and RhoB Promoter Transcriptional Activity Assay. Constitutively active H-Ras61L, K-RasV12, N-RasV12, and dominant negative […]-Ras were kind gifts from Dr. Channing Der (University of North Carolina) (Khosravi-Far, R. et al., Mol Cell Biol, 1995, 15:6443-53; Quilliam, L. A. et al., Mol Cell Biol, 1994, 14:1113-21). Wild-type RhoA and RhoB were subcloned into hemaglutinin (HA)-tagged pcDNA3 (INVITROGEN). The orientation and the sequences of these genes were confirmed by DNA sequencing facilities at the H. Lee Moffitt Cancer Center, Tampa, Fla. RhoB promoter construct pGEI was kindly provided by Dr Y. Monden (Banyu Tsukuba Research, Japan) (Nakamura et al., 1996). pCMV-β-galactosidase vector was purchased from INVITROGEN. The plasmid containing CA-, DN-PI3K, Mek and Akt were kindly provided by Dr. Julie Y. Djeu (H. Lee Moffitt Cancer and Research Institute, Tampa, Fla.) (Jiang, K. et al., Blood, 2003, 101:236-44). β-galactosidase activity and luciferase assay kits were purchased from PROMEGA Corporation, Madison, Wis. The serum response element (SRE) reporter was provided by Dr. Richard Jove, H. Lee Moffitt Cancer and Research Institute, Tampa, Fla. (Turkson, J. et al., Mol Cell Biol, 1999, 19:7519-28). […] Richard Jove, Oncology program, H. Lee Moffitt Cancer and Research Institute, Tampa, Fla. (Turkson, J. et al., Mol Cell Biol, 1999, 19:7519-28). […] (Luetteke, N. C. et al., Genes Dev, 1994, 8:399-413). DNA transfection was performed with the standard lipofectamine protocol (INVITROGEN). […] After transfection the cells were grown for another 36-48 h. Cells were then washed twice with PBS and lyzed in Promega Passive Lysis Buffer. Aliquots of the lysates were then used to measure the luciferase and β-galactosidase activities. The luciferase values were first divided by β-galactosidase values. The RhoB promoter transcriptional activity was determined by dividing the luciferase/β-Gal values from oncogene-transfected cells by those from pcDNA3-transfected cells. […] All the samples were performed in triplicate and the averages of 3 independent experiments were reported here.

RhoB promoter [2] = experiment: RhoB promoter transcriptional activity (luciferase reporter) in human cancer cell lines A-549, Panc-1, C33A; assay type: cell-based; conditions: PANC-1 and A-549 cells expressing mutated K-Ras
Source text: Gene Constructs and RhoB Promoter Transcriptional Activity Assay. Constitutively active H-Ras61L, K-RasV12, N-RasV12, and dominant negative […]-Ras were kind gifts from Dr. Channing Der (University of North Carolina) (Khosravi-Far, R. et al., Mol Cell Biol, 1995, 15:6443-53; Quilliam, L. A. et al., Mol Cell Biol, 1994, 14:1113-21). Wild-type RhoA and RhoB were subcloned into hemaglutinin (HA)-tagged pcDNA3 (INVITROGEN). The orientation and the sequences of these genes were confirmed by DNA sequencing facilities at the H. Lee Moffitt Cancer Center, Tampa, Fla. RhoB promoter construct pGEI was kindly provided by Dr Y. Monden (Banyu Tsukuba Research, Japan) (Nakamura et al., 1996). pCMV-β-galactosidase vector was purchased from INVITROGEN. The plasmid containing CA-, DN-PI3K, Mek and Akt were kindly provided by Dr. Julie Y. Djeu (H. Lee Moffitt Cancer and Research Institute, Tampa, Fla.) (Jiang, K. et al., Blood, 2003, 101:236-44). β-galactosidase activity and luciferase assay kits were purchased from PROMEGA Corporation, Madison, Wis. The serum response element (SRE) reporter was provided by Dr. Richard Jove, H. Lee Moffitt Cancer and Research Institute, Tampa, Fla. […] Richard Jove, Oncology program, H. Lee Moffitt Cancer and Research Institute, Tampa, Fla. […] Human EGFR, ErbB2 cDNA construct were kindly provided by Dr. Noreen Luetteke, H. Lee Moffitt Cancer and Research Institute, Tampa, Fla. (Luetteke, N. C. et al., Genes Dev, 1994, 8:399-413). DNA transfection was performed with the standard lipofectamine protocol (INVITROGEN). Briefly, cells were plated in 60-mm plates, pGEI plasmid was used at 2 μg per plate, whereas all the other plasmids were used at 0.1-1.0 μg per plate. After transfection the cells were grown for another 36-48 h. Cells were then washed twice with PBS and lyzed in Promega Passive Lysis Buffer. Aliquots of the lysates were then used to measure the luciferase and β-galactosidase activities. The luciferase values were first divided by β-galactosidase values. The RhoB promoter transcriptional activity was determined by dividing the luciferase/β-Gal values from oncogene-transfected cells by those from pcDNA3-transfected cells. […] All the samples were performed in triplicate and the averages of 3 independent experiments were reported here. Proteins that induce malignant transformation and those that suppress tumorigenesis most likely antagonize each other's functions. […] Du, W. et al., Mol Cell Biol, 1999, 19:1831-40; Du, W. and Prendergast, G. C., Cancer Res, 1999, 59:5492-6). An objective of the experiments described herein was to determine whether oncogenes that are prevalent in human cancers suppress RhoB expression, and whether RhoB antagonizes the ability of these oncogenes to induce malignant transformation. To this end, the effects of several oncogenes on RhoB promoter transcriptional activity were first evaluated. NIH3T3 cells and human cancer cell lines derived from lung (A-549), pancreatic (Panc-1) and cervical (C33A) tumors were transiently transfected with pcDNA3 empty vectors or pcDNA3 constructs containing various oncogenes along with full length RhoB promoter firefly luciferase reporter and SRE-renilla luciferase reporter as well as a β-gal reporter for controlling transfection efficiency as described in the Materials and Methods section.

5-FU induction of RhoB promoter activity (RhoB promoter [2]): both cell lines are resistant to 5-FU
SMILES: O=c1[nH]cc(F)c(=O)[nH]1 [5-FU, 5-fluorouracil]
induction of RhoB promoter activity (RhoB promoter [1]; NIH3T3, 5-FU 2.0 μM 12 hours (FIG. 6A)): 2 fold
induction of RhoB promoter activity (RhoB promoter [1]; NIH3T3, 5-FU 2 μM for 12 hours, absence of oncogenes (FIG. 2A)): more than 4 fold
induction of RhoB promoter activity (RhoB promoter [1]; NIH3T3, 5-FU 2 μM for 12 hours, in the presence of H-Ras, N-Ras, and K-Ras (FIG. 2A)): only one fold or less than one fold
